From patent US8426446B2, “Acrylamide derivative and use thereof in manufacture of medicament” (Beijing Shiqiao Biopharm Co. Ltd., priority 2009, dated 2013)

These compounds were tested on Human Leukemia Cell K562 (assay: Inhibitory effects on Human Leukemia Cell K562 (MTT)). Conditions: Homo sapiens, K562 cells, 72 h~120 h.
Type: cell-based
Experimental: K562 cells were seeded in RPMI1640 cell culture solution containing 10% of fetal calf serum (supplemented with 100 ku/L of penicillin and streptomycin each). Culture dish was placed in the cell incubator under 5% of CO2 at 37° C. The culture solution was centrifuged and replaced every 2-3 days to passage and collect cells.
Cells in logarithmic growth phase were formulated into the cell suspensions at the required concentration with RPMI1640 culture solution containing 10% fetal calf serum. The resulting mixture was added to 96-wells cell culture plate at 3,000 cells per well (100 μl); after 12 hours of culture, to each well was added different amount of stock solution. The final concentrations of the samples are 100 μg/ml, 10 μg/ml, 1 μg/ml, […], and 0.01 μg/ml respectively in triplicate. After 72 h˜120 h, supernatant was discarded. To each well was added […] fresh serum-free culture solution containing 5 mg/ml blue tetrazolium (MTT). After culturing for 4 hours at 37° C., the mixture was centrifuged at 3000 rpm/min and the supernatant was discarded. Formazan was dissolved with 200 μl DMSO. After vortex oscillation for 1 min, absorbance value (OD-value) was measured on microplate reader at the wavelength of 570/450 nm. Inhibition ratio=(control group OD-value−drug group OD-value)/control group OD-value×100%.

SMILES | IC50 [nM]
Cc1ccc(C(=O)Nc2ccc(F)c(Cl)c2)cc1NC(=O)/C=C/c1cccnc1 [compound 50, N-(3-chloro-4-fluorophenyl)-4-methyl-3-(3-(pyridin-3-yl)acrylamido)benzamide] | 2 to 20
Cc1ccc(C(=O)Nc2cccc(C(F)(F)F)c2)cc1NC(=O)/C=C/c1cccnc1 [compound 51, N-(3-(trifluoromethyl)phenyl)-4-methyl-3-(3-(pyridin-3-yl)acrylamido)benzamide] | < 2
Cc1ccc(C(=O)Nc2ccc(Br)cc2F)cc1NC(=O)/C=C/c1cccnc1 [compound 52, N-(4-bromo-2-fluorophenyl)-4-methyl-3-(3-(pyridin-3-yl)acrylamido)benzamide] | < 2
Cc1cn(-c2ccc(NC(=O)c3ccc(C)c(NC(=O)/C=C/c4cccnc4)c3)cc2C(F)(F)F)cn1 [compound 55, N-(4-(4-methyl-1H-imidazol-1-yl)-3-(trifluoromethyl)phenyl)-4-methyl-3-(3-(pyridin-3-yl)acrylamido)benzamide] | < 2
Cc1ccc(C(=O)Nc2ccc(Cl)c(Cl)c2)cc1NC(=O)/C=C/c1cccnc1 [compound 56, N-(3,4-dichlorophenyl)-4-methyl-3-(3-(pyridin-3-yl)acrylamido)benzamide] | 2 to 20
Cc1ccc(C(=O)Nc2cc(C(F)(F)F)ccc2Cl)cc1NC(=O)/C=C/c1cccnc1 [compound 57, N-(2-chloro-5-(trifluoromethyl)phenyl)-4-methyl-3-(3-(pyridin-3-yl)acrylamido)benzamide] | 2 to 20
Cc1ccc(NC(=O)c2ccc(C)c(NC(=O)/C=C/c3cccnc3)c2)cc1 [compound 66, N-(4-(methyl)phenyl)-4-methyl-3-(3-(pyridin-3-yl)acrylamido)benzamide] | 2 to 20
Cc1ccc(C(=O)Nc2c(C)cccc2Cl)cc1NC(=O)/C=C/c1cccnc1 [compound 67, N-(2-chloro-6-methylphenyl)-4-methyl-3-(3-(pyridin-3-yl)acrylamido)benzamide] | 2 to 20
CCN1CCN(c2ccc(NC(=O)c3ccc(C)c(NC(=O)/C=C/c4cccnc4)c3)cc2C(F)(F)F)CC1 [compound 74, N-(4-(4-ethylpiperazin-1-yl)-3-(trifluoromethyl)phenyl)-4-methyl-3-(3-(pyridin-3-yl)acrylamido)benzamide] | 2 to 20
Cc1ccc(C(=O)Nc2ccc(Cl)c(C(F)(F)F)c2)cc1NC(=O)/C=C/c1cncnc1 [compound 79, N-(4-chloro-3-(trifluoromethyl)phenyl)-4-methyl-3-(3-(pyrimidin-5-yl)acrylamido)benzamide] | 2 to 20
Cc1ccc(NC(=O)c2ccc(C)c(NC(=O)/C=C/c3cncnc3)c2)cc1F [compound 80, N-(3-fluoro-4-methylphenyl)-4-methyl-3-(3-(pyrimidin-5-yl)acrylamido)benzamide] | 2 to 20
Cc1ccc(C(=O)Nc2ccc(F)c(Cl)c2)cc1NC(=O)/C=C/c1cncnc1 [compound 81, N-(3-chloro-4-fluorophenyl)-4-methyl-3-(3-(pyrimidin-5-yl)acrylamido)benzamide] | < 20
Cc1ccc(C(=O)Nc2c(C)cccc2Cl)cc1NC(=O)/C=C/c1cncnc1 [compound 82, N-(2-chloro-6-methylphenyl)-4-methyl-3-(3-(pyrimidin-5-yl)acrylamido)benzamide] | < 20
Cc1ccc(NC(=O)Nc2ccc(F)c(Cl)c2)cc1NC(=O)/C=C/c1cccnc1 [compound 102, N-(5-(3-(3-chloro-4-fluorophenyl)ureido)-2-methylphenyl)-3-(pyridin-3-yl)acrylamide] | 10 to 20

Other lines, results leading:

IC50 [nM] | SMILES
< 1 | Cc1ccc(C(=O)Nc2ccc(OC(F)(F)F)cc2)cc1NC(=O)/C=C/c1cccnc1 [compound 53, N-(4-(trifluoromethoxy)phenyl)-4-methyl-3-(3-(pyridin-3-yl)acrylamido)benzamide]
< 1 | Cc1ccc(C(=O)Nc2ccc(Cl)c(C(F)(F)F)c2)cc1NC(=O)/C=C/c1cccnc1 [compound 58, N-(4-chloro-3-(trifluoromethyl)phenyl)-4-methyl-3-(3-(pyridin-3-yl)acrylamido)benzamide]
< 1 | Cc1ccc(C(=O)Nc2ccc(F)c(C(F)(F)F)c2)cc1NC(=O)/C=C/c1cccnc1 [compound 60, N-(4-fluoro-3-(trifluoromethyl)phenyl)-4-methyl-3-(3-(pyridin-3-yl)acrylamido)benzamide]
< 1 | Cc1ccc(NC(=O)c2ccc(C)c(NC(=O)/C=C/c3cccnc3)c2)cc1F [compound 61, N-(3-fluoro-4-methylphenyl)-4-methyl-3-(3-(pyridin-3-yl)acrylamido)benzamide]
< 1 | Cc1ccc(C(=O)Nc2ccc(C)c(C(F)(F)F)c2)cc1NC(=O)/C=C/c1cccnc1 [compound 62, N-(4-methyl-3-(trifluoromethyl)phenyl)-4-methyl-3-(3-(pyridin-3-yl)acrylamido)benzamide]
< 1 | Cc1ccc(C(=O)Nc2ccc(N3CCOCC3)c(C(F)(F)F)c2)cc1NC(=O)/C=C/c1cccnc1 [compound 69, N-(4-(morpholin-4-yl)-3-(trifluoromethyl)phenyl)-4-methyl-3-(3-(pyridin-3-yl)acrylamido)benzamide]
< 1 | Cc1ccc(C(=O)Nc2ccc(N3CCN(C)CC3)c(C(F)(F)F)c2)cc1NC(=O)/C=C/c1cccnc1 [compound 71, N-(4-(4-methylpiperazin-1-yl)-3-(trifluoromethyl)phenyl)-4-methyl-3-(3-(pyridin-3-yl)acrylamido)benzamide]
< 1 | Cc1ccc(C(=O)Nc2ccc(C)c(C(F)(F)F)c2)cc1NC(=O)/C=C/c1cncnc1 [compound 77, N-(4-methyl-3-(trifluoromethyl)phenyl)-4-methyl-3-(3-(pyrimidin-5-yl)acrylamido)benzamide]
< 1 | Cc1ccc(C(=O)Nc2ccc(N3CCOCC3)c(C(F)(F)F)c2)cc1NC(=O)/C=C/c1cncnc1 [compound 78, N-(4-(morpholin-4-yl)-3-(trifluoromethyl)phenyl)-4-methyl-3-(3-(pyrimidin-5-yl)acrylamido)benzamide]
< 1 | Cc1cn(-c2cc(NC(=O)c3ccc(C)c(NC(=O)/C=C/c4cncnc4)c3)cc(C(F)(F)F)c2)cn1 [compound 90, N-(3-(4-methyl-1H-imidazol-1-yl)-5-(trifluoromethyl)phenyl)-4-methyl-3-(3-(pyrimidin-5-yl)acrylamido)benzamide]
